According to US20090143279A1 (priority 2007, published 2009):
Where two headings read alike, the source gives them in different places.

Columns and labels:
nuOXPHOS transcripts = type: cell-based, mouse; conditions: for nucOX (composite Z-score): normalized score vs mock-treated (DMSO) wells
OXPHOS gene expression = type: cell-based, mouse; conditions: for GE-HTS (composite Z-score): normalized score vs mock-treated (DMSO) wells
[1] = tested on: mitochondrial membrane potential; type: cell-based, mouse; conditions: for ΔΨm (composite Z-score): normalized score vs mock-treated (DMSO) wells
[2] = tested on: cellular dehydrogenase activity; conditions: for MTT (composite Z-score): normalized score vs mock-treated (DMSO) wells
reactive oxygen species = type: cell-based, mouse; conditions: for ROS (composite Z-score): normalized score vs mock-treated (DMSO) wells
cytochrome c = type: cell-based, mouse; conditions: for cyt c (composite Z-score): normalized score vs mock-treated (DMSO) wells
mtOXPHOS transcripts = type: cell-based, mouse; conditions: for mitoOX (composite Z-score): normalized score vs mock-treated (DMSO) wells
C2C12 myotubes = conditions: for Viability (composite Z-score): normalized score vs mock-treated (DMSO) wells
[3] = composite Z-score vs mock-treated (DMSO) wells, Conc 20 μM
[4] = composite Z-score vs DMSO, Conc 20 μM
[5] = normalized composite Z-score vs mock-treated (DMSO) wells, Conc 20 μM
[6] = composite Z-score vs mock-treated (DMSO) wells, concentration of each compound in μM

**Q.** With `C[C@]12CCC(=O)C=C1CCc1ccc(O)cc12` as the molecule, how does the nucOX (nuOXPHOS transcripts; [3]) read?
**A.** −0.281

**Q.** And the GE-HTS (OXPHOS gene expression; [3])?
**A.** 0.075

**Q.** What about the ΔΨm [1, 3] of the same molecule?
**A.** −0.484

**Q.** And the MTT [2, 3]?
**A.** −0.984

**Q.** And the ROS (reactive oxygen species; [3])?
**A.** 0.676

**Q.** What about the cyt c (cytochrome c; [3]) of the same molecule?
**A.** −0.516

**Q.** And the mitoOX (mtOXPHOS transcripts; [3])?
**A.** 0.846

**Q.** What about the Viability (C2C12 myotubes; [3]) of the same molecule?
**A.** −0.592

**Q.** For `COc1ccc2c(c1)C1(C)CCC(O)CC1CC2` (stereo not shown), which nucOX (nuOXPHOS transcripts; [4]) is on record?
**A.** −0.350

**Q.** What about the GE-HTS (OXPHOS gene expression; [4]) of the same molecule?
**A.** −0.375

**Q.** And the ΔΨm [1, 4]?
**A.** −0.840

**Q.** What about the MTT [2, 4] of the same molecule?
**A.** −2.017

**Q.** What about the ROS (reactive oxygen species; [4]) of the same molecule?
**A.** 0.559

**Q.** What about the cyt c (cytochrome c; [4]) of the same molecule?
**A.** −0.087

**Q.** What about the mitoOX (mtOXPHOS transcripts; [4]) of the same molecule?
**A.** −0.270

**Q.** And the Viability (C2C12 myotubes; [4])?
**A.** −1.078

**Q.** How did the nucOX (nuOXPHOS transcripts; [5]) turn out when `COc1cc2c(cc1OC)C1(O)C(=O)c3ccc(O)c(C(=O)O)c3OC1CO2` (stereo not shown) was run?
**A.** −0.162

**Q.** And the GE-HTS (OXPHOS gene expression; [5])?
**A.** −0.404

**Q.** What about the ΔΨm [1, 5] of the same molecule?
**A.** −0.494

**Q.** What about the MTT [2, 5] of the same molecule?
**A.** −0.976

**Q.** What about the ROS (reactive oxygen species; [5]) of the same molecule?
**A.** −0.738

**Q.** What about the cyt c (cytochrome c; [5]) of the same molecule?
**A.** 0.670

**Q.** What about the mitoOX (mtOXPHOS transcripts; [5]) of the same molecule?
**A.** −0.773

**Q.** And the Viability (C2C12 myotubes; [5])?
**A.** 0.509

**Q.** Which results are given for `Cc1ccc2c(c1)CC[C@H]1CC(=O)CC[C@]21C`?
**A.** nucOX (nuOXPHOS transcripts; [3]): 0.870; GE-HTS (OXPHOS gene expression; [3]): 0.903; ΔΨm [1, 3]: −0.470; MTT [2, 3]: −2.132; ROS (reactive oxygen species; [3]): 0.072; cyt c (cytochrome c; [3]): 0.009; mitoOX (mtOXPHOS transcripts; [3]): 0.748; Viability (C2C12 myotubes; [3]): −0.093

**Q.** Which nucOX (nuOXPHOS transcripts; [3]) does the source give for `COc1cccc2c1CCC1=CC(=O)CCC12C` (stereo not shown) here?
**A.** −0.372

**Q.** What about the GE-HTS (OXPHOS gene expression; [3]) of the same molecule?
**A.** −0.465

**Q.** What about the ΔΨm [1, 3] of the same molecule?
**A.** −0.506

**Q.** What about the MTT [2, 3] of the same molecule?
**A.** −1.530

**Q.** And the ROS (reactive oxygen species; [3])?
**A.** 0.673

**Q.** And the cyt c (cytochrome c; [3])?
**A.** −0.293

**Q.** What about the mitoOX (mtOXPHOS transcripts; [3]) of the same molecule?
**A.** −0.626

**Q.** And the Viability (C2C12 myotubes; [3])?
**A.** −0.577

**Q.** `COc1cccc2c1CCC1CC(=O)CCC21C` (stereo not shown) was tested. Which nucOX (nuOXPHOS transcripts; [5]) did it give?
**A.** −0.900

**Q.** And the GE-HTS (OXPHOS gene expression; [5])?
**A.** −0.872

**Q.** And the ΔΨm [1, 5]?
**A.** 1.124

**Q.** What about the MTT [2, 5] of the same molecule?
**A.** −1.068

**Q.** What about the ROS (reactive oxygen species; [5]) of the same molecule?
**A.** −0.109

**Q.** And the cyt c (cytochrome c; [5])?
**A.** 1.307

**Q.** And the mitoOX (mtOXPHOS transcripts; [5])?
**A.** −0.612

**Q.** What about the Viability (C2C12 myotubes; [5]) of the same molecule?
**A.** −0.060

**Q.** Which results are given for `CC1(C)C2CC(=O)[C@]3(C)C(CC[C@@]4(C)[C@H](c5ccoc5)OC(=O)[C@H]5O[C@]543)[C@@]2(C)C(=O)C[C@H]1O` (stereo partly shown)?
**A.** nucOX (nuOXPHOS transcripts; [5]): −0.866; GE-HTS (OXPHOS gene expression; [5]): −0.911; ΔΨm [1, 5]: −0.335; MTT [2, 5]: −1.103; ROS (reactive oxygen species; [5]): 0.122; cyt c (cytochrome c; [5]): 0.113; mitoOX (mtOXPHOS transcripts; [5]): −0.875; Viability (C2C12 myotubes; [5]): −0.023

**Q.** What does the source list for `CCOC(=O)c1oc2c(OC)c(O)cc(O)c2c(=O)c1-c1cc(OC)c(OC)c(OC)c1`?
**A.** nucOX (nuOXPHOS transcripts; [3]): −1.229; GE-HTS (OXPHOS gene expression; [3]): −1.306; ΔΨm [1, 3]: −0.397; MTT [2, 3]: −0.761; ROS (reactive oxygen species; [3]): 0.244; cyt c (cytochrome c; [3]): −0.783; mitoOX (mtOXPHOS transcripts; [3]): −1.218; Viability (C2C12 myotubes; [3]): −1.124

**Q.** With `COC1CC(C)C2OC2CC(C)C2CC(C)(C)C12` (stereo not shown) as the molecule, how does the nucOX (nuOXPHOS transcripts; [5]) read?
**A.** −0.466

**Q.** And the GE-HTS (OXPHOS gene expression; [5])?
**A.** −0.497

**Q.** And the ΔΨm [1, 5]?
**A.** −0.699

**Q.** And the MTT [2, 5]?
**A.** −0.794

**Q.** What about the ROS (reactive oxygen species; [5]) of the same molecule?
**A.** 0.120

**Q.** What about the cyt c (cytochrome c; [5]) of the same molecule?
**A.** 0.933

**Q.** What about the mitoOX (mtOXPHOS transcripts; [5]) of the same molecule?
**A.** −0.439

**Q.** And the Viability (C2C12 myotubes; [5])?
**A.** −1.011

**Q.** For `C=C1CCC(C2CC(=O)OC2=O)C(=O)CCC2C1CC2(C)C` (stereo not shown), which nucOX (nuOXPHOS transcripts; [5]) is on record?
**A.** −1.009

**Q.** What about the GE-HTS (OXPHOS gene expression; [5]) of the same molecule?
**A.** −1.109

**Q.** What about the ΔΨm [1, 5] of the same molecule?
**A.** −0.249

**Q.** And the MTT [2, 5]?
**A.** −0.968

**Q.** What about the ROS (reactive oxygen species; [5]) of the same molecule?
**A.** 0.012

**Q.** And the cyt c (cytochrome c; [5])?
**A.** 0.345

**Q.** And the mitoOX (mtOXPHOS transcripts; [5])?
**A.** −1.046

**Q.** What about the Viability (C2C12 myotubes; [5]) of the same molecule?
**A.** −0.749

**Q.** Which “nucOX (composite Z-score)” value (nuOXPHOS transcripts; Conc 20 μM) does the source give for `CCOc1ccc(C(=O)C2=C(O)C(OC)C(O)(OC)C=C2)cc1` (stereo not shown) here?
**A.** −1.393

**Q.** What about the “GE-HTS (composite Z-score)” value (OXPHOS gene expression; Conc 20 μM) of the same molecule?
**A.** −1.530

**Q.** What about the “ΔΨm (composite Z-score)” value ([1]; Conc 20 μM) of the same molecule?
**A.** 0.089

**Q.** And the “MTT (composite Z-score)” value ([2]; Conc 20 μM)?
**A.** −1.130

**Q.** What about the “ROS (composite Z-score)” value (reactive oxygen species; Conc 20 μM) of the same molecule?
**A.** −0.264

**Q.** And the “cyt c (composite Z-score)” value (cytochrome c; Conc 20 μM)?
**A.** 0.559

**Q.** And the “mitoOX (composite Z-score)” value (mtOXPHOS transcripts; Conc 20 μM)?
**A.** −1.568

**Q.** What about the “Viability (composite Z-score)” value (C2C12 myotubes; Conc 20 μM) of the same molecule?
**A.** −0.048

**Q.** Which results are given for `CC12CCC(O)CC1CCc1ccccc12` (stereo not shown)?
**A.** nucOX (composite Z-score) (nuOXPHOS transcripts; Conc 20 μM): −0.023; GE-HTS (composite Z-score) (OXPHOS gene expression; Conc 20 μM): −0.250; ΔΨm (composite Z-score) ([1]; Conc 20 μM): −0.339; MTT (composite Z-score) ([2]; Conc 20 μM): −0.574; ROS (composite Z-score) (reactive oxygen species; Conc 20 μM): 0.477; cyt c (composite Z-score) (cytochrome c; Conc 20 μM): 0.790; mitoOX (composite Z-score) (mtOXPHOS transcripts; Conc 20 μM): −0.717; Viability (composite Z-score) (C2C12 myotubes; Conc 20 μM): 0.056

**Q.** `C=C1C2CC[C@@]3(C)[C@H](c4ccoc4)OC(=O)C[C@]13O[C@H]1C[C@H](OC(C)=O)C(C)(C)[C@H](CC(=O)OC)[C@@]21C` was tested. Which “nucOX (composite Z-score)” value (nuOXPHOS transcripts; Conc 20 μM) did it give?
**A.** 0.446

**Q.** What about the “GE-HTS (composite Z-score)” value (OXPHOS gene expression; Conc 20 μM) of the same molecule?
**A.** 0.772

**Q.** And the “ΔΨm (composite Z-score)” value ([1]; Conc 20 μM)?
**A.** −0.388

**Q.** And the “MTT (composite Z-score)” value ([2]; Conc 20 μM)?
**A.** −0.881

**Q.** What about the “ROS (composite Z-score)” value (reactive oxygen species; Conc 20 μM) of the same molecule?
**A.** −0.319

**Q.** And the “cyt c (composite Z-score)” value (cytochrome c; Conc 20 μM)?
**A.** −0.069

**Q.** What about the “mitoOX (composite Z-score)” value (mtOXPHOS transcripts; Conc 20 μM) of the same molecule?
**A.** 1.332

**Q.** What about the “Viability (composite Z-score)” value (C2C12 myotubes; Conc 20 μM) of the same molecule?
**A.** −0.316

**Q.** How did the nucOX (nuOXPHOS transcripts; [6]) turn out when `CC(C(=O)O)[C@H]1CCC2C3CC=C4C[C@@H](O)CC[C@]4(C)C3CC[C@@]21C` (stereo partly shown) was run?
**A.** 0.793

**Q.** And the GE-HTS (OXPHOS gene expression; [6])?
**A.** 0.756

**Q.** What about the ΔΨm [1, 6] of the same molecule?
**A.** −0.402

**Q.** What about the MTT [2, 6] of the same molecule?
**A.** −0.244

**Q.** And the ROS (reactive oxygen species; [6])?
**A.** 0.315

**Q.** What about the cyt c (cytochrome c; [6]) of the same molecule?
**A.** −0.309

**Q.** What about the mitoOX (mtOXPHOS transcripts; [6]) of the same molecule?
**A.** 0.486

**Q.** What about the Viability (C2C12 myotubes; [6]) of the same molecule?
**A.** −0.295
